Laboratory results taken from ChEMBL document CHEMBL4308841, “Synthesis, in vitro antiproliferative activity, and kinase inhibitory effects of pyrazole-containing diarylureas and diarylamides” (Eur J Med Chem, 2018).

Experiments:
[1] = test system: MOLT-4; assay: Growth inhibition of human MOLT4 cells incubated for 48 hrs by sulforhodamine B assay; format: functional, cell-based; details: MOLT-4, 48 h
[2] = test system: A549; assay: Growth inhibition of human A549/ATCC cells incubated for 48 hrs by sulforhodamine B assay; format: functional, cell-based; details: A549, 48 h
[3] = test system: HCC 2998; assay: Growth inhibition of human HCC2998 cells incubated for 48 hrs by sulforhodamine B assay; format: functional, cell-based; details: HCC 2998, 48 h
[4] = test system: SK-MEL-2; assay: Growth inhibition of human SK-MEL-2 cells incubated for 48 hrs by sulforhodamine B assay; format: functional, cell-based; details: SK-MEL-2, 48 h
[5] = test system: PC-3; assay: Growth inhibition of human PC3 cells incubated for 48 hrs by sulforhodamine B assay; format: functional, cell-based; details: PC-3, 48 h
[6] = test system: DU-145; assay: Growth inhibition of human DU145 cells incubated for 48 hrs by sulforhodamine B assay; format: functional, cell-based; details: DU-145, 48 h
[7] = test system: Hs-578T; assay: Growth inhibition of human Hs578T cells incubated for 48 hrs by sulforhodamine B assay; format: functional, cell-based
[8] = test system: HL-60(TB); assay: Growth inhibition of human HL-60(TB) cells assessed as cell growth at 0.01 uM incubated for 48 hrs by sulforhodamine B assay relative to control; format: functional; details: HL-60, 48 h, read-out: Activity
[9] = test system: NCI-H522; assay: Growth inhibition of human NCI-H522 cells assessed as cell growth at 0.01 uM incubated for 48 hrs by sulforhodamine B assay relative to control; format: functional; details: NCI-H522, 48 h, read-out: Activity
[10] = test system: HL-60(TB); assay: Growth inhibition of human HL-60(TB) cells assessed as cell growth at 0.1 uM incubated for 48 hrs by sulforhodamine B assay relative to control; format: functional; details: HL-60, 48 h, read-out: Activity
[11] = test system: RPMI-8226; assay: Growth inhibition of human RPMI8226 cells assessed as cell growth at 0.1 uM incubated for 48 hrs by sulforhodamine B assay relative to control; format: functional; details: RPMI-8226, 48 h, read-out: Activity
[12] = test system: Malme-3M; assay: Growth inhibition of human MALME-3M cells assessed as cell growth at 0.1 uM incubated for 48 hrs by sulforhodamine B assay relative to control; format: functional; details: read-out: Activity
[13] = test system: OVCAR-3; assay: Growth inhibition of human OVCAR3 cells assessed as cell growth at 0.1 uM incubated for 48 hrs by sulforhodamine B assay relative to control; format: functional; details: OVCAR-3, 48 h, read-out: Activity
[14] = test system: NCI/ADR-RES; assay: Growth inhibition of human NCI/ADR-RES cells assessed as cell growth at 1 uM incubated for 48 hrs by sulforhodamine B assay relative to control; format: functional; details: read-out: Activity
[15] = test system: CAKI-1; assay: Growth inhibition of human Caki1 cells assessed as cell growth at 1 uM incubated for 48 hrs by sulforhodamine B assay relative to control; format: functional; details: CAKI-1, 48 h, read-out: Activity
[16] = test system: RXF 393; assay: Growth inhibition of human RXF393 cells assessed as cell growth at 1 uM incubated for 48 hrs by sulforhodamine B assay relative to control; format: functional; details: RXF 393, 48 h, read-out: Activity
[17] = test system: DU-145; assay: Growth inhibition of human DU145 cells assessed as cell growth at 1 uM incubated for 48 hrs by sulforhodamine B assay relative to control; format: functional; details: DU-145, 48 h, read-out: Activity
[18] = test system: MCF7; assay: Growth inhibition of human MCF7 cells assessed as cell growth at 1 uM incubated for 48 hrs by sulforhodamine B assay relative to control; format: functional; details: MCF7, 48 h, read-out: Activity
[19] = test system: A549; assay: Growth inhibition of human A549/ATCC cells assessed as cell growth at 100 uM incubated for 48 hrs by sulforhodamine B assay relative to control; format: functional; details: A549, 48 h, read-out: Activity
[20] = test system: SW-620; assay: Growth inhibition of human SW620 cells assessed as cell growth at 100 uM incubated for 48 hrs by sulforhodamine B assay relative to control; format: functional; details: SW-620, 48 h, read-out: Activity
[21] = test system: SF-268; assay: Growth inhibition of human SF268 cells assessed as cell growth at 100 uM incubated for 48 hrs by sulforhodamine B assay relative to control; format: functional; details: SF-268, 48 h, read-out: Activity
[22] = test system: SF-295; assay: Growth inhibition of human SF295 cells assessed as cell growth at 100 uM incubated for 48 hrs by sulforhodamine B assay relative to control; format: functional; details: SF-295, 48 h, read-out: Activity
[23] = test system: OVCAR-4; assay: Growth inhibition of human OVCAR4 cells assessed as cell growth at 100 uM incubated for 48 hrs by sulforhodamine B assay relative to control; format: functional; details: OVCAR-4, 48 h, read-out: Activity
[24] = test system: ACHN; assay: Growth inhibition of human ACHN cells assessed as cell growth at 100 uM incubated for 48 hrs by sulforhodamine B assay relative to control; format: functional; details: read-out: Activity
[25] = test system: UO-31; assay: Growth inhibition of human UO31 cells assessed as cell growth at 100 uM incubated for 48 hrs by sulforhodamine B assay relative to control; format: functional; details: UO-31, 48 h, read-out: Activity
[26] = test system: PC-3; assay: Growth inhibition of human PC3 cells assessed as cell growth at 100 uM incubated for 48 hrs by sulforhodamine B assay relative to control; format: functional; details: PC-3, 48 h, read-out: Activity
[27] = test system: MDA-MB-231; assay: Growth inhibition of human MDA-MB-231 cells assessed as cell growth at 100 uM incubated for 48 hrs by sulforhodamine B assay relative to control; format: functional; details: MDA-MB-231, 48 h, read-out: Activity
[28] = test system: Hs-578T; assay: Growth inhibition of human Hs578T cells assessed as cell growth at 100 uM incubated for 48 hrs by sulforhodamine B assay relative to control; format: functional; details: read-out: Activity
[29] = read-out: LC50 (the source's name)
[30] = read-out: pLC50 (the source's name) (converted)

COc1cc(Cl)cc(-c2nn(-c3cccc(NC(=O)c4ccc(N5CCOCC5)c(C(F)(F)F)c4)c3)cc2-c2ccncc2)c1
GI50 ([1]; read-out: GI50): 5.49 µM
CC50 [1, 29]: > 100 µM
TGI ([1]; read-out: TGI): > 100 µM
GI50 ([1]; read-out: pGI50 (converted)): 5.5 µM
CC50 [1, 30]: > 100 µM
TGI ([1]; read-out: pTGI (converted)): > 100 µM
IC50 [2]: 9.15 µM
GI50 ([2]; read-out: GI50): 9.15 µM
CC50 [2, 29]: > 100 µM
TGI ([2]; read-out: TGI): > 100 µM
GI50 ([2]; read-out: pGI50 (converted)): 9.12 µM
CC50 [2, 30]: > 100 µM
TGI ([2]; read-out: pTGI (converted)): > 100 µM
GI50 ([3]; read-out: GI50): 5.06 µM
CC50 [3, 29]: > 100 µM
TGI ([3]; read-out: TGI): 74.7 µM
GI50 ([3]; read-out: pGI50 (converted)): 6.03 µM
CC50 [3, 30]: > 100 µM
TGI ([3]; read-out: pTGI (converted)): 74.1 µM
GI50 ([4]; read-out: GI50): 2.11 µM
CC50 [4, 29]: > 100 µM
TGI ([4]; read-out: TGI): > 100 µM
GI50 ([4]; read-out: pGI50 (converted)): 26.3 µM
CC50 [4, 30]: > 100 µM
TGI ([4]; read-out: pTGI (converted)): > 100 µM
IC50 [5]: 3.3 µM
GI50 ([5]; read-out: GI50): 3.3 µM
CC50 [5, 29]: > 100 µM
TGI ([5]; read-out: TGI): > 100 µM
GI50 ([5]; read-out: pGI50 (converted)): 3.31 µM
CC50 [5, 30]: > 100 µM
TGI ([5]; read-out: pTGI (converted)): > 100 µM
GI50 ([6]; read-out: GI50): > 100 µM
CC50 [6, 29]: > 100 µM
TGI ([6]; read-out: TGI): > 100 µM
GI50 ([6]; read-out: pGI50 (converted)): > 100 µM
CC50 [6, 30]: > 100 µM
TGI ([6]; read-out: pTGI (converted)): > 100 µM
GI50 ([7]; read-out: GI50): 5.48 µM
CC50 [7, 29]: > 100 µM
TGI ([7]; read-out: TGI): > 100 µM
GI50 ([7]; read-out: pGI50 (converted)): 6.46 µM
CC50 [7, 30]: > 100 µM
TGI ([7]; read-out: pTGI (converted)): > 100 µM
growth at 0.01 µM [8]: 94%
growth at 0.01 µM [9]: 94%
growth at 0.1 µM [10]: 91%
growth at 0.1 µM [11]: 107%
growth at 0.1 µM [12]: 85%
growth at 0.1 µM [13]: 107%
growth at 1 µM [14]: 92%
growth at 1 µM [15]: 94%
growth at 1 µM [16]: 45%
growth at 1 µM [17]: 105%
growth at 1 µM [18]: 90%
growth at 100 µM [19]: 25%
growth at 100 µM [20]: 22%
growth at 100 µM [21]: 53%
growth at 100 µM [22]: -32%
growth at 100 µM [23]: 38%
growth at 100 µM [24]: 28%
growth at 100 µM [25]: 17%
growth at 100 µM [26]: 19%
growth at 100 µM [27]: -10%
growth at 100 µM [28]: 42%

COc1cc(Cl)cc(-c2nn(-c3cccc(NC(=O)Nc4cccc(C(F)(F)F)c4)c3)cc2-c2ccncc2)c1
GI50 ([1]; read-out: GI50): 1.13 µM
CC50 [1, 29]: > 100 µM
TGI ([1]; read-out: TGI): 43.5 µM
GI50 ([1]; read-out: pGI50 (converted)): 1.12 µM
CC50 [1, 30]: > 100 µM
TGI ([1]; read-out: pTGI (converted)): 4.37 µM
IC50 [2]: 0.73 µM
GI50 ([2]; read-out: GI50): 0.726 µM
CC50 [2, 29]: > 100 µM
TGI ([2]; read-out: TGI): 74.2 µM
GI50 ([2]; read-out: pGI50 (converted)): 0.724 µM
CC50 [2, 30]: > 100 µM
TGI ([2]; read-out: pTGI (converted)): 7.41 µM
GI50 ([3]; read-out: GI50): 3.47 µM
CC50 [3, 29]: 90.1 µM
TGI ([3]; read-out: TGI): 14 µM
GI50 ([3]; read-out: pGI50 (converted)): 3.47 µM
CC50 [3, 30]: 89.1 µM
TGI ([3]; read-out: pTGI (converted)): 14.1 µM
GI50 ([4]; read-out: GI50): 1.29 µM
CC50 [4, 29]: 73.4 µM
TGI ([4]; read-out: TGI): 30.5 µM
GI50 ([4]; read-out: pGI50 (converted)): 1.29 µM
CC50 [4, 30]: 7.41 µM
TGI ([4]; read-out: pTGI (converted)): 3.09 µM
IC50 [5]: 0.42 µM
GI50 ([5]; read-out: GI50): 0.417 µM
CC50 [5, 29]: > 100 µM
TGI ([5]; read-out: TGI): 32 µM
GI50 ([5]; read-out: pGI50 (converted)): 0.417 µM
CC50 [5, 30]: > 100 µM
TGI ([5]; read-out: pTGI (converted)): 3.24 µM
GI50 ([6]; read-out: GI50): 2.61 µM
CC50 [6, 29]: > 100 µM
TGI ([6]; read-out: TGI): > 100 µM
GI50 ([6]; read-out: pGI50 (converted)): 2.63 µM
CC50 [6, 30]: > 100 µM
TGI ([6]; read-out: pTGI (converted)): > 100 µM
GI50 ([7]; read-out: GI50): 4.05 µM
CC50 [7, 29]: > 100 µM
TGI ([7]; read-out: TGI): > 100 µM
GI50 ([7]; read-out: pGI50 (converted)): 4.07 µM
CC50 [7, 30]: > 100 µM
TGI ([7]; read-out: pTGI (converted)): > 100 µM
growth at 0.01 µM [8]: 96%
growth at 0.01 µM [9]: 95%
growth at 0.1 µM [10]: 98%
growth at 0.1 µM [11]: 98%
growth at 0.1 µM [12]: 50%
growth at 0.1 µM [13]: 98%
growth at 1 µM [14]: 65%
growth at 1 µM [15]: 57%
growth at 1 µM [16]: 68%
growth at 1 µM [17]: 73%
growth at 1 µM [18]: 62%
growth at 100 µM [19]: -24%
growth at 100 µM [20]: -11%
growth at 100 µM [21]: -28%
growth at 100 µM [22]: -53%
growth at 100 µM [23]: -13%
growth at 100 µM [24]: -9%
growth at 100 µM [25]: -20%
growth at 100 µM [26]: -35%
growth at 100 µM [27]: -43%
growth at 100 µM [28]: 21%
